pIC50: −log10 of the molar value. The source made the active and inactive calls. The calls are words filed in the database; no cut-off is given here.
How the values were obtained:
[1] = Drug distribution in lungs of Balb/C nu/nu mouse xenografted with human HeLa cells at 2.5 umol/kg, iv measured for 1 hr by IVIS imaging analysis; format: ADME, organism-based, Lung; conditions: in vivo, dose 2.5 µmol/kg
[2] = Drug distribution in tumor of Balb/C nu/nu mouse xenografted with human HeLa cells at 2.5 umol/kg, iv measured for 1 hr by IVIS imaging analysis; format: ADME, organism-based, Neoplasm; conditions: in vivo, dose 2.5 µmol/kg
[3] = tested on: HeLa; assay: Antitumor activity against human HeLa cells xenografted in Balb/C nu/nu mouse assessed as tumor growth inhibition at 2.5 umol/kg, iv with photo-irradiation at 30 J/cm2 after 1 hr of compound administration measured for 24 days; format: functional, organism-based; conditions: dose 2.5 µmol/kg, time 24.0 day
[4] = Drug distribution in kidneys of Balb/C nu/nu mouse xenografted with human HeLa cells at 2.5 umol/kg, iv measured for 24 hr by IVIS imaging analysis; format: ADME, organism-based, Kidney; conditions: in vivo, dose 2.5 µmol/kg
[5] = tested on: HeLa; assay: Induction of apoptosis in human HeLa cells assessed as necrotic cells at 12.5 nM incubated for 3 hrs with photo-irradiation at 54 J/cm2 by Annexin V-FITC/PI staining based flow cytometry relative to control; format: functional
[6] = tested on: HeLa; assay: Antitumor activity against human HeLa cells xenografted in Balb/C nu/nu mouse assessed as reduction in tumor histology at 2.5 umol/kg, iv with photo-irradiation at 30 J/cm2 after 1 hr of compound administration measured after 24 days by H and E staining based analysis; format: functional, organism-based; conditions: dose 2.5 µmol/kg, time 24.0 day
[7] = tested on: HeLa; assay: Induction of apoptosis in human HeLa cells assessed as increase in percentage of apoptosis/necrosis at 50 nM incubated for 3 hrs with photo-irradiation at 54 J/cm2 by Annexin V-FITC/PI staining based flow cytometry relative to control; format: functional
[8] = tested on: B16-F10; assay: Photodynamic cytotoxicity against mouse B16-F10 cells assessed as inhibition of cell viability incubated for 3 hrs followed by photo-irradiation at 54 J/cm2 measured after 24 hrs by CCK8 assay; format: functional, cell-based; conditions: B16-F10, light or radiation study
[9] = Cytotoxicity against human HeLa cells assessed as inhibition of cell viability under dark condition incubated for 27 hrs by CCK8 assay; format: toxicity, cell-based
[10] = tested on: HUVEC; assay: Photodynamic cytotoxicity against HUVEC cells assessed as inhibition of cell viability incubated for 3 hrs followed by photo-irradiation at 54 J/cm2 measured after 24 hrs by CCK8 assay; format: functional, cell-based; conditions: Homo sapiens, light or radiation study
[11] = Drug distribution in kidneys of Balb/C nu/nu mouse xenografted with human HeLa cells at 2.5 umol/kg, iv measured for 1 hr by IVIS imaging analysis; format: ADME, organism-based, Kidney; conditions: in vivo, dose 2.5 µmol/kg
[12] = tested on: HeLa; assay: Induction of apoptosis in human HeLa cells assessed as necrotic cells at 50 nM incubated for 3 hrs with photo-irradiation at 54 J/cm2 by Annexin V-FITC/PI staining based flow cytometry relative to control; format: functional
[13] = Toxicity in Balb/C nu/nu mouse xenografted with human HeLa cells assessed as drug tolerance at 2.5 umol/kg, iv with photo-irradiation at 30 J/cm2 after 1 hr of compound administration measured for 24 days; format: organism-based; conditions: in vivo, 576 h, dose 2.5 µmol/kg, time 24 day
[14] = tested on: HeLa; assay: Induction of apoptosis in human HeLa cells assessed as increase in percentage of apoptosis/necrosis at 12.5 nM incubated for 3 hrs with photo-irradiation at 54 J/cm2 by Annexin V-FITC/PI staining based flow cytometry relative to control; format: functional
[15] = tested on: HeLa; assay: Induction of apoptosis in human HeLa cells assessed as viable cells at 12.5 nM incubated for 3 hrs with photo-irradiation at 54 J/cm2 by Annexin V-FITC/PI staining based flow cytometry relative to control; format: functional; conditions: light or radiation study, read-out: Activity
[16] = Drug distribution in liver of Balb/C nu/nu mouse xenografted with human HeLa cells at 2.5 umol/kg, iv measured for 24 hr by IVIS imaging analysis; format: ADME, organism-based; conditions: in vivo, dose 2.5 µmol/kg
[17] = tested on: HeLa; assay: Induction of apoptosis in human HeLa cells assessed as necrotic cells at 100 nM incubated for 3 hrs with photo-irradiation at 54 J/cm2 by Annexin V-FITC/PI staining based flow cytometry relative to control; format: functional
[18] = tested on: HeLa; assay: Induction of ROS production in human HeLa cells preincubated for 2 hrs followed by H2DCFDA probe exposure for 30 mins and subsequent removal of probe with photo-irradiation at 16 J/cm2 by confocal scanning microscopic analysis; format: functional, cell-based; conditions: dose <= 200.0 nM, time 2.5 hrs
[19] = Toxicity in Balb/C nu/nu mouse xenografted with human HeLa cells assessed as increase in body weight at 2.5 umol/kg, iv with photo-irradiation at 30 J/cm2 after 1 hr of compound administration measured for 24 days; format: organism-based; conditions: in vivo, 576 h, dose 2.5 µmol/kg, time 24 day
[20] = tested on: HeLa; assay: Disruption of lysosomes in human HeLa cells at 100 nM incubated for 3 hrs by AO staining based confocal scanning microscopy; format: functional, cell-based
[21] = Toxicity in Balb/C nu/nu mouse xenografted with human HeLa cells assessed as change in lung histology at 2.5 umol/kg, iv with photo-irradiation at 30 J/cm2 after 1 hr of compound administration measured after 24 days by H and E staining based analysis; format: organism-based; conditions: in vivo, 576 h, dose 2.5 µmol/kg, time 24 day
[22] = Drug distribution in heart of Balb/C nu/nu mouse xenografted with human HeLa cells at 2.5 umol/kg, iv measured for 24 hr by IVIS imaging analysis; format: ADME, organism-based; conditions: in vivo, dose 2.5 µmol/kg
[23] = Cytotoxicity against mouse B16-F10 cells assessed as inhibition of cell viability under dark condition incubated for 27 hrs by CCK8 assay; format: toxicity, cell-based
[24] = Drug distribution in Balb/C nu/nu mouse xenografted with human HeLa cells at 2.5 umol/kg, iv measured for 1 hr by IVIS imaging analysis; format: ADME, organism-based; conditions: in vivo, dose 2.5 µmol/kg
[25] = tested on: HeLa; assay: Induction of apoptosis in human HeLa cells assessed as early apoptotic cells at 100 nM incubated for 3 hrs with photo-irradiation at 54 J/cm2 by Annexin V-FITC/PI staining based flow cytometry relative to control; format: functional
[26] = tested on: HeLa; assay: Induction of apoptosis in human HeLa cells assessed as increase in percentage of apoptosis/necrosis at 100 nM incubated for 3 hrs with photo-irradiation at 54 J/cm2 by Annexin V-FITC/PI staining based flow cytometry relative to control; format: functional
[27] = tested on: HeLa; assay: Induction of apoptosis in human HeLa cells assessed as early apoptotic cells at 12.5 nM incubated for 3 hrs with photo-irradiation at 54 J/cm2 by Annexin V-FITC/PI staining based flow cytometry relative to control; format: functional
[28] = Cytotoxicity against human HepG2 cells assessed as inhibition of cell viability under dark condition incubated for 27 hrs by CCK8 assay; format: toxicity, cell-based
[29] = tested on: HeLa; assay: Induction of apoptosis in human HeLa cells assessed as necrotic cells at 25 nM incubated for 3 hrs with photo-irradiation at 54 J/cm2 by Annexin V-FITC/PI staining based flow cytometry relative to control; format: functional
[30] = tested on: HeLa; assay: Induction of apoptosis in human HeLa cells assessed as late apoptotic cells at 25 nM incubated for 3 hrs with photo-irradiation at 54 J/cm2 by Annexin V-FITC/PI staining based flow cytometry relative to control; format: functional
[31] = Drug distribution in spleen of Balb/C nu/nu mouse xenografted with human HeLa cells at 2.5 umol/kg, iv measured for 24 hr by IVIS imaging analysis; format: ADME, organism-based; conditions: in vivo, dose 2.5 µmol/kg

COc1ccc2c(c1)CCc1c(-c3ccccc3)c3n(c1-2)[B-](F)(F)[N+]1=C(c2ccc(OCC(=O)NCCCN4CCOCC4)cc2)C(I)=C(c2ccccc2)C1=N3
Drug uptake [1]: Active
Drug uptake [2]: Active
Activity [3]: Active
Drug uptake [4]: Not Active
Activity [5]: 1.07%
Activity [6]: Active
Activity [7]: 41.8%
pIC50 [8]: 8.14
IC50 at 27 h [9]: > 50000 nM
pIC50 [10]: 7.92
Drug uptake [11]: Active
Activity [12]: 2.08%
Activity [13]: Non-Toxic
Activity [14]: 10.9%
viability at 0.0125 µM [15]: 88.1%
Drug uptake [16]: Not Active
Activity [17]: 0.57%
Activity [18]: Dose-Dependent Effect
Activity [19]: Non-Toxic
Activity [20]: inactive
Activity [21]: Non-Toxic
Drug uptake [22]: Not Active
IC50 at 27 h [23]: > 50000 nM
Drug uptake [24]: Active
Activity [25]: 73.1%
Activity [26]: 64.6%
Activity [27]: 5.28%
IC50 at 27 h [28]: > 50000 nM
Activity [29]: 3.67%
Activity [30]: 12.87%
Drug uptake [31]: Not Active
